Measured values: the supplement of paper PMC10307832

Tests used:
Experiment in all cases: relative viability (nuclei count vs DMSO), 5 days (fraction); higher = more cells survive
Axitinib + Dasatinib = compound: CNC(=O)c1ccccc1Sc1ccc2c(/C=C/c3ccccn3)n[nH]c2c1 [Axitinib] + Cc1nc(Nc2ncc(C(=O)Nc3c(C)cccc3Cl)s2)cc(N2CCN(CCO)CC2)n1 [Dasatinib] (partner 0.075 µM)
Outline: (§1)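 Medians of duplicate plates are given as relative viability. That measure is the nuclei count in treated wells divided by the count in vehicle wells. Counts were taken on 4× images of lung cancer cell lines in 1536-well plates, 5 days after pin-tool dosing the day after seeding with one drug alone or a fixed anchor-drug dose plus five library-drug doses (not always all listed) in √10 steps.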

Bemcentinib + Pictilisib = compound: Nc1nc(Nc2ccc3c(c2)CC[C@@H](N2CCCC2)CC3)nn1-c1cc2c(nn1)-c1ccccc1CCC2 [Bemcentinib] + CS(=O)(=O)N1CCN(Cc2cc3nc(-c4cccc5[nH]ncc45)nc(N4CCOCC4)c3s2)CC1 [Pictilisib] (partner 1 µM)
Outline: as §1

[1] = compound: CC1=CC=C(C=C1)C(=O)CN2C3=C(CCCC3)SC2=N [Pifithrin_alpha] + CCNC(=O)c1noc(-c2cc(C(C)C)c(O)cc2O)c1-c1ccc(CN2CCOCC2)cc1 [Luminespib] (partner 0.01 µM)
Outline: as §1

[2] = compound: CC1=CC=C(C=C1)C(=O)CN2C3=C(CCCC3)SC2=N [Pifithrin_alpha] + COc1cccc2cc(-c3nc([C@H]4CC[C@H](C(=O)O)CC4)n4ncnc(N)c34)[nH]c12 [OSI-027] (partner 0.5 µM)
Outline: as §1

NCI-H650
relative viability (Axitinib + Dasatinib; first compound 0.005 µM): 0.496 | relative viability (Axitinib + Dasatinib; first compound 0.01581 µM): 0.455 | relative viability (Axitinib + Dasatinib; first compound 0.05 µM): 0.47 | relative viability (Axitinib + Dasatinib; first compound 0.1581 µM): 0.436 | relative viability (Axitinib + Dasatinib; first compound 0.5 µM): 0.396 | relative viability (Bemcentinib + Pictilisib; first compound 0.04 µM): 0.835 | relative viability (Bemcentinib + Pictilisib; first compound 0.1265 µM): 1.08 | relative viability (Bemcentinib + Pictilisib; first compound 0.4 µM): 0.887 | relative viability (Bemcentinib + Pictilisib; first compound 1.265 µM): 0.766 | relative viability (Bemcentinib + Pictilisib; first compound 4 µM): 0.827 | relative viability ([1]; first compound 3.162 µM): 0.904 | relative viability ([1]; first compound 10 µM): 0.801 | relative viability ([1]; first compound 31.62 µM): 0.607 | relative viability ([1]; first compound 100 µM): 0.773 | relative viability ([2]; first compound 3.162 µM): 0.51 | relative viability ([2]; first compound 10 µM): 0.582 | relative viability ([2]; first compound 31.62 µM): 0.489 | relative viability ([2]; first compound 100 µM): 0.427
